Measurements published in patent US6447997B1, “Gene coding for GADD153 as a clinical diagnostic and prognostic in cancer therapy” (Research Development Foundation, priority 1997, dated 2002).

Experiments:
[1] = test system: UMSCC10b cells; experiment: Sensitivity to cDDP in vitro, clonogenic assay; type: cell-based, human; conditions: parental cell line, 1 h exposure
Protocol: The sensitivity of the UMSCC10b cell line and its cDDP-resistant variants to cDDP was determined by clonogenic assay using a 1 h cDDP exposure. A single-cell suspension was plated into 60 mm tissue culture dishes (Corning) at 300 cells per dish in fresh medium. After incubation for 24 h at 37° C., cells had attached to the plates and cDDP was added to the cells and incubated for 1 h following which the cells were washed twice with phosphate-buffered saline and 5 ml of fresh medium was added. Cultures were incubated for an additional 13-15 days following which there were fixed with methanol, stained with Giemsa, and clusters of >50 cells were scored as colonies. cDDP-selected cells were cultured in drug-free media for 2 weeks before cDDP sensitivity was determined by clonogenic assay.

[2] = test system: GADD153 mRNA; experiment: Change in GADD153 mRNA in tumor biopsies of head and neck cancer patients after cDDP-based treatment; type: in vivo, human; conditions: 24 h after start of first course
Protocol: The present inventors have also discovered that the prognostic method for clinical response by a tumor to a chemotherapeutic agent can accurately predict a corresponding therapeutic response by a patient even though there exist several sources for potential variation. The relationship between the change in GADD153 mRNA level at 24 h after the start of the first course of treatment with cDDP or cDDP plus radiation therapy and subsequent tumor clinical response to this therapy in 32 patients with stage IV head and neck cancer was examined.
Thirty-two patients with previously untreated stage IV head and neck cancer were treated at the UCSD Cancer Center on a phase I/II experimental protocol. All patients had been considered to have unresectable tumors. All patients received i.a. cDDP (150-200 mg/M^2) and i.v. sodium thiosulfate infusion concurrently. The details of this treatment program have been published elsewhere by the present inventors (17,18), which description is specifically incorporated herein by reference. cDDP was dissolved in 400 ml of 0.9% saline and infused over 3-5 minutes through a microcatheter placed angiographically to selectively encompass the dominant blood supply of the targeted tumor. Simultaneous with the cDDP infusion, sodium thiosulfate was infused i.v. at a dose of 9 g/m^2 dissolved in 300 ml of distilled water over 3 minutes, followed by 12 g/m^2 dissolved in one liter of distilled water over 6 h by continuous infusion to prevent severe nephrotoxicity. Treatment was repeated weekly for a total of 4 doses. […] Tumor response was assessed at 2 months using criteria based on physical examination, repeat computed tomography/magnetic resonance imaging studies, and repeat endoscopy and biopsy. […]
GADD153 message levels were quantified using a modification of the technique reported by Horikoshi et al (20). […] PCR products were separated on a 8 M (6%) acrylamide gel and analyzed using a Molecular Imaging System (BioRad, Hercules, Calif.). […]

[NH2][Pt]([NH2])([Cl])[Cl] [cDDP, cisplatin]
IC10 [1]: 2 µM
IC50 [1]: 7 µM
IC70 [1]: 12 µM
magnitude of increase, above baseline, in GADD153 mRNA, mean (SD) ([2]; CR group (17 patients)): 3.8±2.2 fold
magnitude of increase, above baseline, in GADD153 mRNA, mean (SD) ([2]; NR group (7 patients with tumor progression)): 0.8±0.5 fold
magnitude of increase, above baseline, in GADD153 mRNA, mean (SD) ([2]; PR group, all 8 patients): 1.6±0.9 fold
